Tests used:
Format in all cases: biochemical
Conditions in all cases: [γ-33P-ATP] 10 μM or KM values; 40 minutes at room temperature
Aurora-B (h) = molecular target: T1, Aurora-B (h) (Homo sapiens, UniProt Q96GD4); assay: Aurora-B (h) kinase assay
T1 construct: purchased Millipore UK Ltd (assays performed there as a service)
Procedure: (§1) The above assay procedure can be used to determine the IC50 for inhibition and/or the inhibition constant, Ki. […] The IC50 value is estimated by preparing a 10 point curve using a ½ log dilution series (for example, a typical curve may be prepared using the following compound concentrations: 3 μM, 1 μM, 0.3 μM, 0.1 μM, 0.03 μM, 0.01 μM, 0.003 μM, 0.001 μM, 0.0003 μM and 0 μM).
Aurora-B (h) is incubated with 8 mM MOPS pH 7.0, 0.2 mM EDTA, 30 μM […], 10 mM MgAcetate and [γ-^33PATP] […] The reaction is initiated by the addition of the MgATP mix. After incubation for 40 minutes at room temperature, the reaction is stopped by the addition of a 3% phosphoric acid solution. 10 μL of the reaction is then spotted onto a P30 filtermat and washed three times for 5 minutes in 75 mM phosphoric acid and once in methanol prior to drying and scintillation counting.
(§2) The kinase assays described herein were performed at Millipore UK Ltd, Dundee Technology Park, Dundee DD2 1SW, UK.

Aurora-A (h) = molecular target: T2, Aurora-A (h) (Homo sapiens, UniProt O14965); assay: Aurora-A (h) kinase assay
T2 construct: purchased Millipore UK Ltd (assays performed there as a service)
T2 sequence (O14965 1-403): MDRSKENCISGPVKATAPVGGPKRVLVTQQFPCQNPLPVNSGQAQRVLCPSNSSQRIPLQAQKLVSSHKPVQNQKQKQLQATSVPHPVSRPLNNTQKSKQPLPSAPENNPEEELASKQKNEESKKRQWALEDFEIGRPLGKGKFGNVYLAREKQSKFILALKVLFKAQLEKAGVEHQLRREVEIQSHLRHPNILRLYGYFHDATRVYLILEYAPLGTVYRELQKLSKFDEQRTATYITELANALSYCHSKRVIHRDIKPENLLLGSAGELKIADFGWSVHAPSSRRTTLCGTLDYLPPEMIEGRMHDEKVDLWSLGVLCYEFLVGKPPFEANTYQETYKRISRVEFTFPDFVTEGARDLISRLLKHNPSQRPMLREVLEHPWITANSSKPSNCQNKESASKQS
Procedure: as §1
Aurora-A (h) is incubated with 8 mM MOPS pH 7.0, 0.2 mM EDTA, 200 μM LRRASLG (Kemptide), 10 mM MgAcetate and [γ-^33P-ATP] […] The reaction is initiated by the addition of the MgATP mix. After incubation for 40 minutes at room temperature, the reaction is stopped by the addition of 3% phosphoric acid solution. 10 μL of the reaction is then spotted onto a P30 filtermat and washed three times for 5 minutes in 75 mM phosphoric acid and once in methanol prior to drying and scintillation counting.
as §2

JAK2 (h) = molecular target: T3, JAK2 (h) (Homo sapiens, UniProt O60674); assay: JAK2 (h) kinase assay
T3 construct: purchased Millipore UK Ltd (assays performed there as a service)
T3 sequence (O60674 whole entry): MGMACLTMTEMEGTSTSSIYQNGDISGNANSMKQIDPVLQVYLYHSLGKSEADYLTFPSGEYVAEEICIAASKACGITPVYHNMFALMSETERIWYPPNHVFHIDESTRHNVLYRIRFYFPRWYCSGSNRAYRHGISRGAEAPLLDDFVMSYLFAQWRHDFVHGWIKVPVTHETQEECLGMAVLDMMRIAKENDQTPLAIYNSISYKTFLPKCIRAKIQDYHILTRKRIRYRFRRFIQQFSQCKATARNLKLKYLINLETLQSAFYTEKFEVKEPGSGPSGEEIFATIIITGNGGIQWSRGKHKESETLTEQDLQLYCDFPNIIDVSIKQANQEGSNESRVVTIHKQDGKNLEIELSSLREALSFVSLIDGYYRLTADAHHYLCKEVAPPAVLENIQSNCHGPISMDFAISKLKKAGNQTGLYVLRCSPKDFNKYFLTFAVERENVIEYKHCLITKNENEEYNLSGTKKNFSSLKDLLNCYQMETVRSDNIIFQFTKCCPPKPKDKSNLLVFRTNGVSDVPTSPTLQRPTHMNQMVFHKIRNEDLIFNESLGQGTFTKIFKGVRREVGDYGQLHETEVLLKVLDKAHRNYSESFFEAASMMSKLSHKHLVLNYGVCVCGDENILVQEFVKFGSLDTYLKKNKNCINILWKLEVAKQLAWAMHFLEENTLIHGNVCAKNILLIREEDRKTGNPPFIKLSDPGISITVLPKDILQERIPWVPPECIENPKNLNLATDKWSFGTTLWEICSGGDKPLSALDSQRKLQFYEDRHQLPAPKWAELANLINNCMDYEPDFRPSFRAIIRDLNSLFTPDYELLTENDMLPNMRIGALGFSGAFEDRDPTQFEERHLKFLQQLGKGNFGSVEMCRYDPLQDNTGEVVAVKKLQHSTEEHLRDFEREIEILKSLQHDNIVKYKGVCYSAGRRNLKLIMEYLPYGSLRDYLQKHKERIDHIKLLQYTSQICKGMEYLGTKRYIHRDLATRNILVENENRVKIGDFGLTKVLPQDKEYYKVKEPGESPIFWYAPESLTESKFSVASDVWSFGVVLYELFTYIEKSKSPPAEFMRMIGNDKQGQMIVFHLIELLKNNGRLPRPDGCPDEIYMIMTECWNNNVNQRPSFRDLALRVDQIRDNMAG
How it was run: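 Radiometric filter-binding assay run at Millipore: human JAK2 with 100 μM peptide substrate in 8 mM MOPS pH 7.0, 0.2 mM EDTA, 10 mM MgAcetate, [γ-^33P]ATP at 10 μM or KM, 40 min at room temperature. Acid-stopped, spotted on P30 filtermat, scintillation counted; IC50 from 10-point ½-log curve.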

T1 sequence (Q96GD4 whole entry): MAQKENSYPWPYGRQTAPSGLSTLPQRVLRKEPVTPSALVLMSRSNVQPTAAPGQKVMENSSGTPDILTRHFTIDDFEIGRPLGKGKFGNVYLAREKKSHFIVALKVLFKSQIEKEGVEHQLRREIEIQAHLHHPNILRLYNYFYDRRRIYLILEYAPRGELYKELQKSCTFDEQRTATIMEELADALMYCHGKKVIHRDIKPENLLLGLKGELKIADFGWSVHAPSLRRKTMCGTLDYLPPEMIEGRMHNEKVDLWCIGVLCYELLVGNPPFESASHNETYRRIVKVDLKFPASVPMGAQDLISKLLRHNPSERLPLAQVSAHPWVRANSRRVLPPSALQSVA

Structure (SMILES)	IC50 (Aurora-B (h))	IC50 (Aurora-A (h))	IC50 (JAK2 (h))
CC(O)Cn1cnc2cc(Nc3ncc(Cl)c(NC4CCN(c5ccc(C#N)cn5)CC4)n3)ccc21 (stereo not drawn) [Example 61, 6-(4-((5-chloro-2-((1-(2-hydroxypropyl)-1H-benzo[d]imidazol-5-yl)amino)pyrimidin-4-yl)amino)piperidin-1-yl)nicotinonitrile]	50 nM	113 nM	1 nM
CC(C)(O)Cn1nnc2cc(Nc3ncc(Cl)c(NC4CCN(c5ccc(C#N)cn5)CC4)n3)ccc21 [Example 69, 6-(4-((5-chloro-2-((1-(2-hydroxy-2-methylpropyl)-1H-benzo[d][1,2,3]triazol-5-yl)amino)pyrimidin-4-yl)amino)piperidin-1-yl)nicotinonitrile]	45 nM	40 nM	2 nM
CC(C)(O)Cc1nc2cc(Nc3ncc(Cl)c(NC4CCN(c5ccc(C#N)nn5)CC4)n3)ccn2n1 [Example 77, 6-(4-((5-chloro-2-((2-(2-hydroxy-2-methylpropyl)-[1,2,4]triazolo[1,5-a]pyridin-7-yl)amino)pyrimidin-4-yl)amino)piperidin-1-yl)pyridazine-3-carbonitrile]	132 nM	699 nM	17 nM

Next, values leading:

IC50 (Aurora-B (h))	IC50 (Aurora-A (h))	IC50 (JAK2 (h))	Structure (SMILES)
793 nM	987 nM	39 nM	CC(C)(O)Cc1nc2ccc(Nc3ncc(Cl)c(NC4CCN(c5ccc(C#N)cn5)CC4)n3)cn2n1 [Example 67, 6-(4-((5-chloro-2-((2-(2-hydroxy-2-methylpropyl)-[1,2,4]triazolo[1,5-a]pyridin-6-yl)amino)pyrimidin-4-yl)amino)piperidin-1-yl)nicotinonitrile]
185 nM	561 nM	10 nM	CC(C)(O)Cc1nc2cc(Nc3ncc(Cl)c(NC4CCN(c5ccc(C#N)cn5)CC4)n3)ccn2n1 [Example 78, 6-(4-((5-chloro-2-((2-(2-hydroxy-2-methylpropyl)-[1,2,4]triazolo[1,5-a]pyridin-7-yl)amino)pyrimidin-4-yl)amino)piperidin-1-yl)nicotinonitrile]
